Values quoted from earlier work as cited in patent publication US20080063637A1, “Regulation of oncogenesis by Akt-specific isoforms” (The Trustees of Tufts College, priority 2006, published 2008).

Key:
[1] = system: corresponding Akt isoforms (phosphorylation by PDK1); settings: Barnett et al. 2005
[2] = system: LNCap prostate cancer cells; settings: Barnett et al. 2005

In the case of O=c1[nH]c2ccccc2n1C1CCN(Cc2ccc(-c3nc4cc5nc[nH]c5cc4nc3-c3ccccc3)cc2)CC1 [Akt-I-1,2], the “phosphorylation and activation of the corresponding Akt isoforms by PDK1” value [1] is given as “blocked” and the TRAIL-induced apoptosis [2] is given as “promote”.
